Test results reported in US8784793B2, “Conformable solvent-based bandage and coating material” (Rochal Industries LLP, priority 2005, dated 2014).

Assay: Rate of polymerization of BCA on a glass slide as a function of HMDS concentration
Assay type: physicochemical
Description: Additionally, a test was conducted for the rate of polymerization as a function of solvent concentration in order to assess the time interval for heat generation upon the polymerization of the cyanoacrylate monomer. The mixture included n-butyl cyanoacrylate in the presence and absence of hexamethyldisiloxane. […] Utilizing a glass slide containing BCA with no HMDS as the control, polymerization of this neat system occurred in 25 seconds. When a 20% BCA solution in HMDS was studied, utilizing the same amount of BCA as in the control, polymerization occurred in 40 seconds, and decreased the polymerization rate by 60%. […] Thus, the addition of the non-stinging, non-irritating volatile hexamethyldisiloxane solvent caused polymerization of the cyanoacrylate to occur at a slower rate than that reported by U.S. Pat. No. 6,010,714, allowing the heat of polymerization to be more evenly dissipated. […] The use of the HMDS would thus facilitate rapid coverage of a wound site.

flow over the glass surface: tended to bead
time in which polymerization occurred (same amount of BCA as control): 25 s
SMILES: C=C(C#N)C(=O)OCCCC [BCA, n-Butyl cyanoacrylate]
